From patent US8496952B2, “Antimicrobial compositions comprising silver chloride and benzoisothiazoline” (Clariant Finance (BVI) Limited, priority 2007, dated 2013)

How the values were obtained:
[1] = tested on: Staphylococcus aureus DSM 799, Pseudomonas aeruginosa DSM 1128, E-Coli DSM 682, Enterobacter aerogenes NCIMB 10102; assay: Kill-kinetic measurement according to the Clariant method, supported silver/BIT (Example 2); type: cell-based; conditions: summary of Table 2
Description: (Kill-kinetic measurement according to the Clariant method) of silver-BIT mixtures in comparison to the individual biocides silver and BIT
(§1) • 900 ml of phosphate buffer pH 7.0: • 600 ml of H2O dest. +117 ml of (b)+183 ml of (a)
(§2) The bacteria are cultivated on a caso agar.
(§3) After the bacteria have spent 24 hours on the culture medium (caso agar), 10 ml of the 0.1 M phosphate buffer are added thereto and mixed for 20 seconds using a vortex mixer; 9 ml of the 0.1 M buffer solution are added to 1 ml of this solution; in turn, 1 ml of this solution are taken and 9 ml of 0.1 M phosphate buffer are added. The resulting solution is the inoculum with which the test series is carried out.
The germ count was determined in each case at the start (0 h), after 0.5 h, 1 h, 2 h; 3 h; 5 h; 7 h and 24 h in accordance with the TVC method European Pharmacopoeia 2.6.12.

[2] = Color stability of Ag/BIT compared with AgCl, AgNO3, JMAC; type: physicochemical
[3] = tested on: Staphylococcus aureus DSM 799, Pseudomonas aeruginosa DSM 1128, E-Coli DSM 682, Enterobacter aerogenes NCIMB 10102; assay: Kill-kinetic measurement according to the Clariant method, Ag salt/BIT (Example 1); type: cell-based; conditions: summary of Table 1
Description: (kill-kinetic measurement according to the Clariant method) of the composition Ag/BIT in comparison to the individual biocides AgCl, AgNO3, composition 1 and composition 5
as §1, §2
as §3, with “Description of the kill-kinetic measurement according to the Clariant method After” for “After”
The concentration data given for the above samples refer in each case to elemental silver and pure BIT (i.e. not in salt form). Thus, for example in sample 4, AgNO3 and BIT were mixed together such that the mixture comprised 26.7 ppm of Ag, calculated as element, and 53.3 ppm of BIT, calculated as pure substance.
The germ count was determined in each case at the start (0 h), after 0.5 h, 1 h; 2 h; 3 h; 5 h; 7 h and 24 h in accordance with the TVC method European Pharmacopoeia 2.6.12.

| Compound | antimicrobial effect / efficiency (in words) [1] | Appearance after ([2]; 5 min) | Appearance after ([2]; 30 min) | Appearance after ([2]; 1 h) | Appearance after ([2]; 2 h) | Appearance after ([2]; 6 h) | Appearance after ([2]; 24 h) | Appearance after ([2]; immediately) | antimicrobial effect / efficiency (in words) [3] |
| --- | --- | --- | --- | --- | --- | --- | --- | --- | --- |
| O=c1[nH]sc2ccccc12 [Benzoisothiazoline, 1,2-benzoisothiazolin-3-one] | only develops its antimicrobial effect after many hours | – | – | – | – | – | – | – | – |
| silver ions | moderate | – | – | – | – | – | – | – | – |
| [Cl][Ag] [AgCl] | – | gray | dark gray | dark gray | dark gray | dark gray | dark gray | white | – |
| AgNO3 [Sample 8] | – | – | – | – | – | – | – | – | moderate |
| O=[N+]([O-])[O-].[Ag+] [AgNO3 solution, AgNO3] | – | dark gray | dark gray | dark gray | dark gray | dark gray | dark gray | gray | – |
| AgCl [Sample 9] | – | – | – | – | – | – | – | – | moderate |
